From patent US5234925A (Dana-Farber Cancer Institute, Inc., priority 1991, dated 1993)
Where two headings read alike, the source gives them in different places.

Columns and labels:
[1] = target: T1, Mouse liver FPGS (Mus musculus, UniProt P48760); conditions: relative to folic acid (1.0); cited from earlier work
T1 sequence (P48760 43-587): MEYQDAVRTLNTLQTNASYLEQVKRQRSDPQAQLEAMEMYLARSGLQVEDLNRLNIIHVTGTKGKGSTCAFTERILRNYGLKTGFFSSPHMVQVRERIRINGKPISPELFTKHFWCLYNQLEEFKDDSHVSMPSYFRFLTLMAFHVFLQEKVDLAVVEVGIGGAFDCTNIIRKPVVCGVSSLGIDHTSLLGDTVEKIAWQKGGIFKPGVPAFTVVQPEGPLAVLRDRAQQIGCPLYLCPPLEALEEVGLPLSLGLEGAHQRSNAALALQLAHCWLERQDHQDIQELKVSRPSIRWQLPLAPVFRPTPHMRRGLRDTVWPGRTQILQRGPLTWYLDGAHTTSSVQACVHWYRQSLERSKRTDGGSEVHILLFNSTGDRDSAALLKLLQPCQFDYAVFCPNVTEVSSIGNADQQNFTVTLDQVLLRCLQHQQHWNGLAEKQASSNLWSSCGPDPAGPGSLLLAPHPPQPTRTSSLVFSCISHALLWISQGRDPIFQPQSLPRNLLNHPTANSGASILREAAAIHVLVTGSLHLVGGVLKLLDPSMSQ

[2] = system: L1210 cells; conditions: cited from earlier work; for IC50: 48 h, RPMI 1640 with 10% nondialyzed fetal calf serum
[3] = physiologic pH; cited from earlier work
[4] = compared with reduced folates and MTX; cited from earlier work
[5] = clinical trials; cited from earlier work
[6] = target: T2, L1210 TS (Mus musculus, UniProt P07607); conditions: cited from earlier work
T2 construct: purified TS from L1210 murine leukemic cells; endogenous in cells; host or cells: L1210 murine leukemic cells (enzyme purified from them)
T2 sequence (P07607 whole entry): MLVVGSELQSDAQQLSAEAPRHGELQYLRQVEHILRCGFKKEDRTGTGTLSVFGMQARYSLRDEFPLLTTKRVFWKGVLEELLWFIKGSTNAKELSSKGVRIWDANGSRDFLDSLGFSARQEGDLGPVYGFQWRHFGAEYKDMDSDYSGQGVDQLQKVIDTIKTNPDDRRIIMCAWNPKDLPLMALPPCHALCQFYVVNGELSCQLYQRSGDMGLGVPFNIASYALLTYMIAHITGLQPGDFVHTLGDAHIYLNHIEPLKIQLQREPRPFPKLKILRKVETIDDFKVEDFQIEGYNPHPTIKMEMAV

[7] = system: L1210 cells; experiment: Inhibition of growth of L1210 cells in culture; assay type: cell-based, murine; conditions: for IC50: Mus musculus, L1210
Experimental: ^d Cells were incubated in RPMI 1640 medium supplemented with 10%
nondialyzed fetal calf serum, and were counted after 48 h of drug
^e The IC50 for cells grown in the presence of 10 μM dThd
increased only to 0.84 μM.
It was therefore of interest to determine whether 2-aza analogues such as 10 also require both dThd and HX for complete protection from their growth inhibitory effect.

[8] = target: T2, L1210 TS; experiment: Inhibition of purified TS from L1210 murine leukemic cells (3H release assay); assay type: biochemical
Experimental: ^b Inhibition of purified TS from L1210 cells was determined by the
^3 Hrelease assay method as described previously (Sikora et al.)

[9] = target: T1, Mouse liver FPGS; experiment: Substrate activity for partially purified FPGS from mouse liver; assay type: biochemical
Excerpt: ^c Substrate activity for partially purified FPGS from mouse liver wa
determined as described previously (Moran et al., Mol. Pharmacol. 27:156,
1985), with relative Vmax and k' values expressed in comparison with […]

## Nc1nc2ccc(CNc3ccc(C(=O)N[C@@H](CCC(=O)O)C(=O)O)cc3)cc2c(=O)[nH]1 [Compound 1, 5,8-Dideazafolic Acid]
[1]
  Vmax (rel), Mouse liver FPGS: 1.3
  k'(rel), Mouse liver FPGS: 29
[2]
  IC50: 2700 nM

## C#CCN(Cc1ccc2nc(N)[nH]c(=O)c2c1)c1ccc(C(=O)N[C@@H](CCC(=O)O)C(=O)O)cc1 [Compound 2, N^10 -Propargyl-5,8-dideazafolic Acid]
[3]
  solubility: low solubility at physiologic pH
[4]
  transport mechanism of cell entry: distinct from that of reduced folates and MTX
[1]
  Vmax (rel), Mouse liver FPGS: 0.88
  k'(rel), Mouse liver FPGS: 2.3
[2]; 5 μM dThd and 5 μM folinic acid
  reversal of inhibitory effect on growth of L1210 cells by thymidine plus folinic acid: restored to normal levels
[2]; 10 μM thymidine alone
  reversal of inhibitory effect on growth of L1210 cells by thymidine: not fully reversed
[2]; 10 μM thymidine and 50 μM hypoxanthine
  reversal of inhibitory effect on growth of L1210 cells by thymidine plus hypoxanthine: restored to normal levels
[2]
  IC50: 3500 nM
[5]
  toxicities in clinical use: hepatic and renal toxicities

## O=C(O)CC[C@H](NC(=O)c1ccc(NCc2ccc3nc[nH]c(=O)c3c2)cc1)C(=O)O [Compound 3, 2-Desamino-5,8-dideazafolic Acid]
[1]
  Vmax (rel), Mouse liver FPGS: 1.3
  k'(rel), Mouse liver FPGS: 29
[2]
  IC50: 430 nM
[6]; purified TS from L1210 cells, Table 1, read-out: Ki, L1210 TS
  Ki: 2000 nM
[6]; reported previously (Jackman et al.), read-out: Ki for TS inhibition
  Ki: 2000 nM

## O=C(O)CC[C@H](NC(=O)c1ccc(NCc2ccc3nn[nH]c(=O)c3c2)cc1)C(=O)O [Compound 10, N-[4-(1,2,3-Benzotriazin-4(3H)-on-6-yl)methyl] aminobenzoyl-L-glutamic Acid]
[7]; L1210 cells
  difference in IC50 with and without dThd compared with 1, 2 and 3: comparable to that reported for 1 and 3, but much lower than that reported for 2
[7]; L1210 cells, 10 versus 3
  potency against cultured cells relative to 2-desamino-5,8-dideazafolate: comparable
[7]; L1210 cells, dThd 0.84 versus 0.42 μM
  difference in IC50 with and without dThd: twofold
[7]; 10 μM dThd (footnote e), read-out: IC50, L1210 cells grown in the presence of dThd
  IC50: 840 nM
[7]; 48 h, RPMI 1640 with 10% nondialyzed fetal calf serum, without dThd, read-out: IC50, L1210 cells
  IC50: 420 nM
[8]; 10 versus 2-desamino analogue 3
  increase in TS binding: ca. sixfold
[8]; purified TS from L1210 cells, Table 1
  Ki: 330 nM
[9]; ratio 10 versus 1 or 3
  k'(rel) lower than the k'(rel) of 1 or 3: 4.6 -fold
[9]; ratio 10 versus CB3717
  k'(rel) greater than that for CB3717: twofold
[9]; relative to folic acid (1.0)
  Vmax (rel), Mouse liver FPGS: 1.6
[9]; relative to folic acid (1.0), Km (app) divided into Vmax (rel)
  k'(rel), Mouse liver FPGS: 6.3
